Here are results for two compounds from patent US20030232013A1, “Therapeutic and diagnostic targeting of cancers cells with tumor homing peptides” (priority 2002, published 2003).

Where two headings read alike, the source gives them in different places. Bridge positions count the residues as written; N and C are the ends. Square brackets hold non-standard residues; d marks the D form. Peptide text beside a SMILES is read from it. Ahx = NCCCCCC(=O)O

The test system of assay [1] is CFPAC-1 (Human) pancreatic cancer cells. The experiment in a line: In vitro competitive cell binding assay, CFPAC-1. The following applies: competitive binding vs. ^125I-Tyr^5-6-Ahx-Phe^19-STh or ^125I-Tyr^5-Phe^19-STh. As to the method:
(§1) In Vitro Competitive Cell Binding Assay. The IC50 values of both metallated and non-metallated STh conjugates were determined in human cancer cells by a competitive displacement cell binding assay using ^125I-STh (^125I-Tyr^5-Phe^19-STh or ^125I-Tyr^5-6-Ahx-Phe^19-STh). […] After the incubation, the reaction medium was aspirated and cells were washed three times with media. The radioactivity bound to the cells was counted in a Packard Riastar gamma counting system. The ^125I-STh bound to cells was plotted vs. increasing concentrations of STh conjugate to determine the respective IC50 values (Table 3). For statistical considerations, three separate in vitro cell binding experiments with each conjugate were performed in duplicate.

Assay [2] has as its system CAPAN-1 (Human) pancreatic cancer cells. The experiment in a line: In vitro competitive cell binding assay, CAPAN-1. To be noted: competitive binding vs. ^125I-Tyr^5-6-Ahx-Phe^19-STh or ^125I-Tyr^5-Phe^19-STh. The method, then: as §1
Assay [3] relates to A375 (Human) melanoma cells. The experiment in a line: In vitro competitive cell binding assay, A375. The following applies: competitive binding vs. ^125I-Tyr^5-6-Ahx-Phe^19-STh or ^125I-Tyr^5-Phe^19-STh. The method, then: as §1
Assay [4] deals with MB-231 (Human) breast cancer cells. The experiment in a line: In vitro competitive cell binding assay, MB-231. As to the method: as §1
Assay [5] relates to T47D (Human) breast cancer cells. Kind of assay: In vitro competitive cell binding assay, T47D. The method, then: as §1
Assay [6] deals with MCF-7 (Human) breast cancer cells. The experiment in a line: In vitro competitive cell binding assay, MCF-7. The following applies: competitive binding vs. ^125I-Tyr^5-6-Ahx-Phe^19-STh or ^125I-Tyr^5-Phe^19-STh. The method, then: as §1
The subject of assay [7] is PC-3 (Human) prostate cancer cells. Kind of assay: In vitro competitive cell binding assay, PC-3. To be noted: competitive binding vs. ^125I-Tyr^5-6-Ahx-Phe^19-STh or ^125I-Tyr^5-Phe^19-STh. The method, then:
as §1

Assay [8] relates to MB-468 (Human) breast cancer cells. The experiment in a line: In vitro competitive cell binding assay, MB-468. To be noted: competitive binding vs. ^125I-Tyr^5-6-Ahx-Phe^19-STh or ^125I-Tyr^5-Phe^19-STh. The method, then: as §1
Assay [9] deals with OVCAR-3 (Human) ovarian cancer cells. Kind of assay: In vitro competitive cell binding assay, OVCAR-3. The following applies: competitive binding vs. ^125I-Tyr^5-6-Ahx-Phe^19-STh or ^125I-Tyr^5-Phe^19-STh. As to the method: as §1
Assay [10] relates to H69 (Human) lung cancer cells. Kind of assay: In vitro competitive cell binding assay, H69. The following applies: competitive binding vs. ^125I-Tyr^5-6-Ahx-Phe^19-STh or ^125I-Tyr^5-Phe^19-STh. As to the method: as §1

Consider `CC(C)C[C@@H]1NC(=O)[C@H](CCC(=O)O)NC(=O)[C@@H]2CSSC[C@@H]3NC(=O)[C@H](C)NC(=O)[C@@H]4CCCN4C(=O)[C@H](CC(N)=O)NC(=O)[C@H](CSSC[C@H](NC(=O)[C@H](Cc4ccc(O)cc4)NC(=O)[C@H](CC(N)=O)NC(=O)[C@H](CO)NC(=O)[C@H](CO)NC(=O)[C@H](CC(N)=O)NC(=O)CCCCCN)C(=O)N2)NC(=O)[C@H](CSSC[C@@H](C(=O)N[C@@H](Cc2ccccc2)C(=O)O)NC(=O)CNC(=O)[C@H]([C@@H](C)O)NC3=O)NC1=O` [6-Ahx-Phe^19-STh] (H-[Ahx]NSSNYCCELCCNPACTGCF-OH; disulfide 7-12, 8-16, 11-19 (inferred); N-terminus assumed), for which the IC50 was determined as 4.4 ± 1.5 nM in assay [1]; 4.5 nM in assay [2]; 6.4 ± 2.9 nM in assay [3]; 5.2 ± 1.5 nM in assay [4] (competitive binding vs. ^125I-Tyr^5-6-Ahx-Phe^19-STh or ^125I-Tyr^5-Phe^19-STh, read-out: In vitro IC50, Breast MB-231 (Human)); 5.6 ± 0.9 nM in assay [5] (competitive binding vs. ^125I-Tyr^5-6-Ahx-Phe^19-STh or ^125I-Tyr^5-Phe^19-STh, read-out: In vitro IC50, Breast T47D (Human)); 4.6 ± 2.8 nM in assay [6]. Besides, in assay [7], the IC50 is 3.1 nM.
Turning to `CC(C)C[C@@H]1NC(=O)[C@H](CCC(=O)O)NC(=O)[C@@H]2CSSC[C@@H]3NC(=O)[C@H](C)NC(=O)[C@@H]4CCCN4C(=O)[C@H](CC(N)=O)NC(=O)[C@H](CSSC[C@H](NC(=O)[C@H](Cc4ccc(O)cc4)NC(=O)[C@H](CC(N)=O)NC(=O)[C@H](CO)NC(=O)[C@H](CO)NC(=O)[C@@H](N)CC(N)=O)C(=O)N2)NC(=O)[C@H](CSSC[C@@H](C(=O)N[C@@H](Cc2ccccc2)C(=O)O)NC(=O)CNC(=O)[C@H]([C@@H](C)O)NC3=O)NC1=O` [Phe^19-STh] (H-NSSNYCCELCCNPACTGCF-OH; disulfide 6-11, 7-15, 10-18), the IC50 in assay [4] (competitive binding vs ^125-Tyr-6-Ahx-Phe^19-STh, read-out: IC50, MB-231 (FIG. 5)) turned out to be 5.2 ± 1.3 nM; in [5] (competitive binding vs ^125-Tyr-6-Ahx-Phe^19-STh, read-out: IC50, T-47D (FIG. 5)), 3 ± 1.7 nM; in assay [8], 2.8 nM; in assay [9], 3.2 nM; in assay [10], 4.5 ± 1.7 nM.
